According to ChEMBL document CHEMBL1148463, “Gamma-amino-substituted analogues of 1-[(S)-2,4-diaminobutanoyl]piperidine as highly potent and selective dipeptidyl peptidase II inhibitors” (J Med Chem, 2004):

Tests used:
[1] = biological target: Dipeptidyl peptidase 2 (Homo sapiens, UniProt Q9UHL4); test: Inhibition of human Dipeptidylpeptidase II (DPP II)
[2] = biological target: Dipeptidyl peptidase 4 (Homo sapiens, UniProt P27487); test: Inhibition of human Dipeptidylpeptidase IV (DPP IV)
[3] = biological target: Dipeptidyl peptidase II and dipeptidyl peptidase IV (DPP2 and DPP4) (Homo sapiens) (UniProt P27487+Q9UHL4); test: Ratio of IC50 for DPP IV to that of IC50 for DPP II; assay type: protein assay
[4] = Inhibition of human Dipeptidylpeptidase II (DPP II)

Sequence of Dipeptidyl peptidase 4 (P27487 whole entry): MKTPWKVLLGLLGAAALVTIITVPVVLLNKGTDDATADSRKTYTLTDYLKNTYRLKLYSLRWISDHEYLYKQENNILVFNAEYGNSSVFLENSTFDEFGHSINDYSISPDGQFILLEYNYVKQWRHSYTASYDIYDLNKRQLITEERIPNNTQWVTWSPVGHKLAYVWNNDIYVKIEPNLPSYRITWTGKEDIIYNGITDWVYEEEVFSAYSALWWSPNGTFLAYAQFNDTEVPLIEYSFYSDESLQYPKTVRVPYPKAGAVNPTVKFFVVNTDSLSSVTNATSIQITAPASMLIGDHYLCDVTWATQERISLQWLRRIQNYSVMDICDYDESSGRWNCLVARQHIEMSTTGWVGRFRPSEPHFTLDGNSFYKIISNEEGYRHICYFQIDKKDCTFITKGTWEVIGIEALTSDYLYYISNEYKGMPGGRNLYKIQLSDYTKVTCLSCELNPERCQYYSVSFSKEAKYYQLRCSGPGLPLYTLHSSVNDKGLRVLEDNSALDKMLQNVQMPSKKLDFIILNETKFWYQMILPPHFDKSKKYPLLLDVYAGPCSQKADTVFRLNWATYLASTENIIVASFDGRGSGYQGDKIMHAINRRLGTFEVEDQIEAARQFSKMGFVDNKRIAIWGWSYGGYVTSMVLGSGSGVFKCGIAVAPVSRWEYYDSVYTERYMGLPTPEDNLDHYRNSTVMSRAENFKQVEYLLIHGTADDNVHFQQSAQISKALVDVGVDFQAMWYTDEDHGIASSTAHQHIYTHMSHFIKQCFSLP

| Compound | IC50 [1] | IC50 [2] | SI [3] | IC50 [4] |
| --- | --- | --- | --- | --- |
| N#CC1CCCCN1C(=O)[C@@H](N)CCNCc1ccccc1 (stereo partly drawn) | 0.004 µM | 68 µM | 17000 |  |
| N[C@@H](CCNCCc1ccccc1)C(=O)N1CCCCC1 | 0.0009 µM | 188 µM | 210000 |  |
| NCC[C@H](NC1CCNCC1)C(=O)N1CCCCC1 | 0.017 µM | > 1000 µM | > 59 |  |
| N[C@@H](CCN(Cc1ccccc1)Cc1ccccc1)C(=O)N1CCCCC1 | 0.0006 µM | 266 µM | 440000 |  |
| N[C@@H](CCNCc1ccncc1)C(=O)N1CCCCC1 | 0.00075 µM | 125 µM | 170000 |  |
| N[C@@H](CCNCc1ccccc1OCc1ccccc1)C(=O)N1CCCCC1 | 0.00039 µM | > 500 µM | > 1.3e+06 |  |
| N#Cc1cccc(CNCC[C@H](N)C(=O)N2CCCCC2)c1 | 0.0027 µM | 132 µM | 50000 |  |
| N[C@@H](CCNCc1ccc2ccccc2c1)C(=O)N1CCCCC1 | 0.0011 µM | 179 µM | 160000 |  |
| N[C@@H](CCNC(=O)c1ccccc1)C(=O)N1CCCCC1 | 0.0074 µM | 418 µM |  |  |
| N[C@@H](CCNC1CCCCC1)C(=O)N1CCCCC1 | 0.0186 µM | > 1000 µM | > 50000 |  |
| N[C@@H](CCNCc1ccc(Cl)cc1)C(=O)N1CC=CCC1 | 0.0011 µM | 148 µM | 130000 |  |
| N[C@@H](CCNCc1ccccc1Cl)C(=O)N1CCCCC1 | 0.00023 µM | 345 µM | 1.5e+06 |  |
| N[C@@H](CCNCc1ccc(Cl)cc1)C(=O)N1CCC(F)CC1 | 0.00039 µM | 70 µM | 180000 |  |
| N[C@@H](CCNCc1ccc(Cl)cc1)C(=O)N1CCCCC1 | 0.00048 µM | 165 µM | 340000 |  |
| N[C@@H](CCNCc1cccc(Cl)c1)C(=O)N1CCCCC1 | 0.00134 µM | 186 µM | 140000 |  |
| N[C@@H](CCNC1CCNCC1)C(=O)N1CCCCC1 | 0.085 µM | 64 µM | 750 |  |
| NCC[C@H](N)C(=O)N1CCCCC1 |  | > 1000 µM | > 7600 | 0.13 µM |
| N[C@@H](CCNc1ncccc1[N+](=O)[O-])C(=O)N1CCCCC1 | 0.0235 µM | 56 µM |  |  |
| CN[C@@H](CCNCc1ccc(Cl)cc1)C(=O)N1CCCCC1 | 0.187 µM | > 500 µM | > 2700 |  |
| N#Cc1ccc(NCC[C@H](N)C(=O)N2CCCCC2)nc1 | 0.0046 µM | 205 µM |  |  |
| CC1CCN(C(=O)[C@@H](N)CCNCc2ccc(Cl)cc2)CC1 | 0.00055 µM | > 500 µM | > 910000 |  |

Next, values leading:

| IC50 [1] | IC50 [2] | SI [3] | IC50 [4] | Compound |
| --- | --- | --- | --- | --- |
| 0.00062 µM | 500 µM |  |  | N[C@@H](CCNCc1ccc(Cl)cc1)C(=O)N1CCCC(F)C1 (stereo partly drawn) |
| 0.0011 µM | 496 µM | 450000 |  | N[C@@H](CCNCC1CCCCC1)C(=O)N1CCCCC1 |
| 0.00113 µM | > 500 µM | > 440000 |  | CC1CCCN(C(=O)[C@@H](N)CCNCc2ccc(Cl)cc2)C1 (stereo partly drawn) |
| 0.038 µM | 151 µM | 4000 |  | N#C[C@@H]1CCCCN1C(=O)[C@@H](N)CCN |
| 0.00177 µM | 250 µM | 140000 |  | COc1cccc(CNCC[C@H](N)C(=O)N2CCCCC2)c1 |
| 0.0015 µM | 250 µM |  |  | N[C@@H](CCNc1ccccc1)C(=O)N1CCCCC1 |
| 0.00203 µM | 247 µM | 120000 |  | N[C@@H](CCNCc1ccccc1)C(=O)N1CCCCC1 |
| 0.0027 µM | > 500 µM | > 180000 |  | COc1ccc(CNCC[C@H](N)C(=O)N2CCCCC2)c(OC)c1 |
| 0.0023 µM | > 500 µM | > 220000 |  | CC1CCCCN1C(=O)[C@@H](N)CCNCc1ccc(Cl)cc1 (stereo partly drawn) |
| 0.00022 µM | 196 µM | 890000 |  | CN(CC[C@H](N)C(=O)N1CCCCC1)Cc1ccc(Cl)cc1 |
| 0.0065 µM | 13 µM | 2000 |  | N#CC1CCCCN1C(=O)[C@@H](N)CCNCc1ccc(Cl)cc1 (stereo partly drawn) |
| 0.0074 µM | > 1000 µM | > 140 |  | NCC[C@H](N=C(N)N)C(=O)N1CCCCC1 |
| 0.00131 µM | 301 µM | 230000 |  | N[C@@H](CCNCc1cccc2ccccc12)C(=O)N1CCCCC1 |
| 0.00066 µM | 417 µM | 630000 |  | COc1ccc(CNCC[C@H](N)C(=O)N2CCCCC2)cc1 |
| 0.00041 µM | 192 µM | 470000 |  | N[C@@H](CCNCc1ccc(OCc2ccccc2)cc1)C(=O)N1CCCCC1 |
| 0.0042 µM | > 125 µM | > 30000 |  | N[C@@H](CCN(Cc1ccc(Cl)cc1)Cc1ccc(Cl)cc1)C(=O)N1CCCCC1 |
| 0.113 µM | > 1000 µM | > 9000 |  | N[C@@H](CCNCc1ccc(Cl)cc1)C(=O)N1CCC(O)CC1 |
| 0.185 µM | > 500 µM | > 270000 |  | COc1ccccc1CNCC[C@H](N)C(=O)N1CCCCC1 |
| 0.0547 µM | > 1000 µM | > 20000 |  | N[C@@H](CCNCc1ccc(Cl)cc1)C(=O)N1CCCC(O)C1 (stereo partly drawn) |
| 0.0015 µM | 518 µM |  |  | CC(=O)NCC[C@H](N)C(=O)N1CCCCC1 |
| 0.00191 µM | > 500 µM | > 260000 |  | N[C@@H](CCNCCCc1ccccc1)C(=O)N1CCCCC1 |
| 0.0018 µM | 545 µM |  |  | N=C(N)NCC[C@H](N)C(=O)N1CCCCC1 |
| 0.0008 µM | 278 µM | 350000 |  | N[C@@H](CCNCc1cccs1)C(=O)N1CCCCC1 |
| 0.0125 µM | > 1000 µM | > 80 |  | NCC[C@H](NCc1ccccc1)C(=O)N1CCCCC1 |
